A short description of series [1]: Particle size analysis. The settings on record: for particle size distribution at 90%: 90% of particles below this size.
Experimental: The TGS crystals obtained were tested for purity and particle size.
The solids obtained were tested for purity, particle size and X ray diffraction for the nature of solid obtained.
Series [2] can be described thus: Accelerated stability test, sealed containers incubated at 50° C. The conditions noted are these: sealed container. It counts as physicochemical. As for the experimental part: For extrapolating potential storage stability beyond one year, an accelerated storage stability test was conducted. In this test, crystalline TGS of small and large mean particle size was incubated at 50° C. in sealed containers. Percent assay and pH were tested after each 24 hours for five successive days. […] A three days' stability in accelerated stability test is extrapolated by Catani et al (2005) to 8 years of storage stability at ambient temperature.
All the three samples were taken in sealed containers and were incubated at 50° C. […]

Series [3] can be described thus: Stability testing as per ICH Guideline Q1A(R2), storage stability. The class given is physicochemical. The conditions noted are these: for Appearance: storage condition not given. The source says:
Stability testing was done as per ICH Harmonised Tripaertite Guideline Stability Testing of New drug substances and Products Q1A(R2) issued by International Conference on Hamonization of technical requirements for registration of pharmaceuticals for human use and recommended for adoption at Step 4 of the ICH Process on 6 Feb.
Details are given on table nos 1 to 4 given in the following: […]

Series [4] is described as follows: Analysis against JECFA specifications: solubility. The class given is physicochemical. The conditions noted are these: in ethyl acetate.
Where [5] appears, read: Fourth day, listed as Amorphous TGS.

SMILES strings stand for the structures.

Consider `OC[C@H]1O[C@H](O[C@]2(CCl)O[C@H](CCl)[C@@H](O)[C@@H]2O)[C@H](O)[C@@H](O)[C@H]1Cl` [1′-6′-Dichloro-1′-6′-DIDEOXY-β-Fructofuranasyl-4-chloro-4-deoxy-galactopyranoside], for which, in series [1] (listed as Example 5), the “particle size distribution at 90%” value was “below 240 microns”. In series [1] (listed as Crystalline TGS (big particle size)), the mean particle size result is “about 35 micron”. For the same compound, the “Assay (%)” value in series [2] (Fifth day) turned out to be 96.86%; in series [2] (First day), 98.73%; in series [2] (Fourth day), 97.06%; in series [2] (Second day) it was 98.21%; in series [2] (Sixth day) it was 96.72%; in series [2] (Third day), 97.53%. Besides, the PH in series [2] (Fifth day) came to 7.00; in series [2] (First day) it was 7.08; in series [2] (Fourth day) it was 7.00; in series [2] (Second day), 7.08; in series [2] (Sixth day), 7.02; in series [2] (Third day) it was 7.02. Also, the “decline in percent assay” value in series [2] (by fifth day) was determined as 1.87%; in series [2] (by sixth day) it was 2.01%; in series [2] (in first three days, listed as large particle size crystalline TGS), 1.2%. Further, the “difference in pH” value in series [2] (over the test period) is “not substantial”.
Turning to `OC[C@H]1O[C@H](O[C@]2(CCl)O[C@H](CCl)[C@@H](O)[C@@H]2O)[C@H](O)[C@@H](O)[C@H]1Cl` [Amorphous TGS small particle size, 1′-6′-Dichloro-1′-6′-DIDEOXY-β-Fructofuranasyl-4-chloro-4-deoxy-galactopyranoside], the “particle size distribution at 90%” value in series [1] (listed as Example 3) is given as “below 6 microns”; in series [1] (listed as amorphous product), “less than 6 microns”. This compound also registered a largest particle size in series [1] (listed as amorphous form) of at most 14 microns. For the same compound, the PH in series [2] (Fifth day) was found to be 7.06; in series [2] (First day), 7.03; in series [2] (setting [5]) it was 7.02; in series [2] (Second day) it was 7.03; in series [2] (Sixth day) it was 7.05. The “Assay (%)” value in series [2] (Fifth day, listed as Amorphous TGS) came out at 98.19%; in series [2] (First day, listed as Amorphous TGS) it was 98.21%; in series [2] (setting [5]), 98.18%; in series [2] (Second day, listed as Amorphous TGS), 98.20%; in series [2] (Sixth day, listed as Amorphous TGS), 98.17%; in series [2] (Third day, listed as Amorphous TGS), 98.24%. Also, the “decline in percent assay” value in series [2] (in first three days, listed as Amorphous form) is 0.08%; in series [2] (in first three days, listed as amorphous form), 0.08%. In addition, the “decline in pH” value in series [2] (over three days) is on record as 0.08 units. The Assay is listed as 99.34% in series [3] (25° C. ± 2° C. 60% RH ± 5% RH, 1st month); 99.36% in series [3] (25° C. ± 2° C. 60% RH ± 5% RH, 2nd month); 99.32% in series [3] (25° C. ± 2° C. 60% RH ± 5% RH, 3rd month); 99.36% in series [3] (25° C. ± 2° C. 60% RH ± 5% RH, 4th month); 99.28% in series [3] (25° C. ± 2° C. 60% RH ± 5% RH, 5th month); 99.23% in series [3] (25° C. ± 2° C. 60% RH ± 5% RH, 6th month). The Assay in series [3] (25° C. ± 2° C. 60% RH ± 5% RH, 12th month) worked out at 99.22%; in series [3] (25° C. ± 2° C. 60% RH ± 5% RH, 24th month), 99.14%; in series [3] (30° C. ± 2° C. 65% RH ± 5% RH, 1st month) it was 99.84%; in series [3] (30° C. ± 2° C. 65% RH ± 5% RH, 2nd month), 99.84%; in series [3] (30° C. ± 2° C. 65% RH ± 5% RH, 3rd month) it was 99.62%; in series [3] (30° C. ± 2° C. 65% RH ± 5% RH, 4th month), 99.65%. Also, the Assay in series [3] (30° C. ± 2° C. 65% RH ± 5% RH, 5th month) was determined as 99.58%; in series [3] (30° C. ± 2° C. 65% RH ± 5% RH, 6th month), 99.53%; in series [3] (30° C. ± 2° C. 65% RH ± 5% RH, 12th month), 99.62%; in series [3] (30° C. ± 2° C. 65% RH ± 5% RH, 24th month), 99.32%; in series [3] (40° C. ± 2° C. 75% RH ± 5% RH, 1st month) it was 99.68%; in series [3] (40° C. ± 2° C. 75% RH ± 5% RH, 2nd month), 99.65%. Also, the Assay in series [3] (40° C. ± 2° C. 75% RH ± 5% RH, 3rd month) amounted to 99.67%; in series [3] (40° C. ± 2° C. 75% RH ± 5% RH, 4th month) it was 99.58%; in series [3] (40° C. ± 2° C. 75% RH ± 5% RH, 5th month), 99.52%; in series [3] (40° C. ± 2° C. 75% RH ± 5% RH, 6th month), 99.46%; in series [3] (40° C. ± 2° C. 75% RH ± 5% RH, 12th month), 99.52%; in series [3] (40° C. ± 2° C. 75% RH ± 5% RH, 24th month) it was 99.12%. The compound also displayed an Assay in series [3] (INITIAL (printed in the 40° C. ± 2° C. 75% RH ± 5% RH column)) of 99.70%. Besides, in series [3] (storage), the stability in storage result is given as “stable for at least one year in storage”. Besides, the Appearance entry in series [3] (1st month), in series [3] (2nd month), in series [3] (3rd month), in series [3] (4th month), in series [3] (5th month) and in series [3] (6th month) was “Normal” throughout. Further, the Appearance entry in series [3] (12th month), in series [3] (24th month) and in series [3] (INITIAL) was “Normal” throughout. Moreover, the “stability compared to the crystalline form” value in series [3] (table 4) is given as “much more stable”. Further, in series [4], the Solubility result is listed as “water. Slightly”.
With `OC[C@H]1O[C@H](O[C@]2(CCl)O[C@H](CCl)[C@@H](O)[C@@H]2O)[C@H](O)[C@@H](O)[C@H]1Cl` [Example 4, 1′-6′-Dichloro-1′-6′-DIDEOXY-β-Fructofuranasyl-4-chloro-4-deoxy-galactopyranoside], the “particle size distribution at 90%” value in series [1] is recorded as below 95 microns.
For `OC[C@H]1O[C@H](O[C@]2(CCl)O[C@H](CCl)[C@@H](O)[C@@H]2O)[C@H](O)[C@@H](O)[C@H]1Cl` [Example 6, 1′-6′-Dichloro-1′-6′-DIDEOXY-β-Fructofuranasyl-4-chloro-4-deoxy-galactopyranoside], in series [1], the “particle size distribution at 90%” value is listed as “below 12 microns”.
